What was measured:
[1] = target: T1, GDP-KRAS G12D mutant protein (Homo sapiens, UniProt P01116, G12D); test: Differential scanning fluorimetry (DSF) binding affinity to GDP-KRAS G12D mutant protein; conditions: DSF thermal shift, 10 μM compound, 4 μg KRAS protein
T1 construct: purchased Daegu Gyeongbuk Medical Innovation Foundation (DGMIF), made to order
Procedure, shortened: (§1)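 Each sample held 4 μg recombinant KRAS G12D (GDP- or GppNHp-bound) and 10 μM compound, incubated 30 min at room temperature before adding 2× SYPRO Orange. The GDP form was run in kit buffer, the GppNHp form in 50 mM HEPES pH 7.5. Melt was 25–99 °C at 0.05 °C/s (580/623 nm), reported as ΔTm versus no compound.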

[2] = target: T2, GppNHp-KRAS G12D mutant protein (Homo sapiens, UniProt P01116, G12D); test: Differential scanning fluorimetry (DSF) binding affinity to GppNHp-KRAS G12D mutant protein; conditions: DSF thermal shift, 10 μM compound, 4 μg KRAS protein, 50 mM HEPES (pH 7.5)
T2 construct: purchased Daegu Gyeongbuk Medical Innovation Foundation (DGMIF), made to order
Procedure, shortened: as §1

[3] = tested on: ERK phosphorylation (pERK) induced by KRAS G12D mutation; test: Inhibitory activity against ERK phosphorylation (pERK) induced by KRAS G12D mutation, immunofluorescence assay in AsPC-1 cells; type: cell-based; conditions: Homo sapiens, ASPC1, 3 h drug treatment, pERK (Thr202/Tyr204) signal normalized to DAPI
Text: Test Example 2: Measurement of Inhibitory Activity Against ERK Phosphorylation (pERK) Induced by KRAS G12D Mutation (Immunofluorescence Assay)
Immunofluorescence is a method used to detect specific substances within cells or tissues through antigen-antibody interactions, and allows for the identification of the presence or absence of specific proteins by using antibodies labeled with various fluorescent dyes. After a primary antibody that recognizes a specific protein selectively binds to the epitope, a fluorescent antibody (secondary antibody) is bound to the primary antibody.
It was confirmed as follows that the compounds according to an embodiment of the present application inhibit phosphorylation of extracellular signal-regulated kinases (Phospho-ERK, pERK) induced by KRAS G12D mutation.
AsPC-1 cells were seeded at a density of 10,000 cells/well in RPMI-1640 medium containing 10% FBS and 1% Penicillin-Streptomycin in 384-well plates (Perkinelmer, #6057300) and allowed to attach for 16 h. After the cells attached to the plate, the cells were treated with drugs at a maximum concentration of 10 μM with a 3-fold serial dilution. After 3 h of drug treatment, the medium was removed and the cells were treated with 50 μL of 4% formaldehyde (Biosesang, #PC2031-050-00) for 20 min and washed three times with 50 μL of phosphate buffered saline (PBS).
50 μL of PBS containing 0.3% Triton X-100 (Sigma, #T8787-250 mL) was added and reacted for 20 minutes to allow antibody penetration into cells, and then the plate was washed three times with 50 μL of PBS. To block nonspecific binding of antibodies to the plate, 50 μL of PBS containing 2% BSA (sigma, #A7906-500G) and 0.01% Tween-20 (Sigma, #P1379-500 mL) (hereinafter referred to as PBS-T) was added, and reacted at room temperature for 2 hours.
To detect pERK, the primary antibody (cell signaling, #9101) was diluted 1:500 in PBS-T containing 2% BSA, 50 μL was added, and the plate was stored in a refrigerator at 4° C. for 16 hours to react, followed by washing three times with 50 μL of PBS-T. To visualize the primary antibody, the secondary antibody, i.e., anti-rabbit-Alexa Fluor 488 (ThermoFisher, #A11008), was diluted 1:1000 in PBS-T containing 2% BSA, 50 μL was added, and after reaction at room temperature for 1 hour, the plate was washed three times with 50 μL of PBS-T. Next, to visualize the nuclei of cells, DAPI (Thermofisher, #62248, 1 mg/mL) was diluted 1:1000 in PBS-T, 50 μL each was added, reacted at room temperature for 10 minutes, and washed three times with 50 μL of PBS-T. 50 μL of PBS-T was added to each well, and the plate was read for fluorescence value using HCS equipment (MOLECULAR DEVICES/ImageXpress Micro).
Data analysis was performed by normalizing the pERK (Thr202/Tyr204) signal to the DAPI signal and calculating the percentage relative to the DMSO as a control. The IC50 value was determined by fitting a four-parameter dose-response curve using the GraphPad Prism software (version 8.4.3), and interpolating the concentration at which 50% inhibition occurred. The results of calculating the inhibitory efficacy of the compounds according to one embodiment of the present application against KRAS G12D mutation-induced pERK activity are shown in Table 3.

SMILES | GDP-KRAS G12D (ΔTmD, ° C.) [1] | GppNHp-KRAS G12D (ΔTmD, ° C.) [2] | IC50 [3]
Oc1cc(-c2cc3nc(OC[C@@]45CCCN4C[C@H](F)C5)nc(N4C[C@H]5CC[C@@H](C4)N5)c3n3ccnc23)c2c(F)c(F)ccc2c1 [Example 3, 4-(1-((1 R,5S)-3,8-diazabicyclo[3.2.1]octan-3-yl)-3-(((2R,7aS)-2-fluorotetrahydro-1H-pyrrolizin-7a(5H)-yl)methoxy)imidazo[1′,2′:1,6]pyrido[3,2-d]pyrimidin-6-yl)-5,6-difluoronaphthalen-2-ol] | 6.05 °C | 1.90 °C | 1420 nM
CN(C)C1(CNc2nc(OC[C@@]34CCCN3C[C@H](F)C4)nc3cc(-c4cc(O)cc5ccc(F)c(F)c45)c4nccn4c23)CCC1 [Example 5, 4-(1-(((1-(dimethylamino)cyclobutyl)methyl)amino)-3-(((2R,7aS)-2-fluorotetrahydro-1H-pyrrolizin-7a(5H)-yl)methoxy)imidazo[1′,2′:1,6]pyrido[3,2-d]pyrimidin-6-yl)-5,6-difluoronaphthalen-2-ol] | 4.27 °C | 1.60 °C | 953 nM
C#Cc1c(F)ccc2cc(O)cc(-c3cc4nc(OC[C@@]56CCCN5C[C@H](F)C6)nc(NCC5(N(C)C)CCC5)c4n4ccnc34)c12 [Example 6, 4-(1-(((1-(dimethylamino)cyclobutyl)methyl)amino)-3-(((2R,7aS)-2-fluorotetrahydro-1H-pyrrolizin-7a(5H)-yl)methoxy)imidazo[1′,2′:1,6]pyrido[3,2-d]pyrimidin-6-yl)-5-ethynyl-6-fluoronaphthalen-2-ol] | – | – | 2320 nM
C#Cc1c(F)ccc2cc(O)cc(-c3cc4nc(OCC5(CN6C[C@H]7C[C@@H]6CO7)CC5)nc(N5C[C@H]6CC[C@@H](C5)N6)c4n4ccnc34)c12 [Example 10, 4-(3-((1-(((1 R,4R)-2-oxa-5-azabicyclo[2.2.1]heptan-5-yl)methyl)cyclopropyl)methoxy)-1-((1 R,5S)-3,8-diazabicyclo[3.2.1]octan-3-yl)imidazo[1′,2′:1,6]pyrido[3,2-d]pyrimidin-6-yl)-5-ethynyl-6-fluoronaphthalen-2-ol] | 9.00 °C | 2.79 °C | 2100 nM
C#Cc1c(F)ccc2cc(O)cc(-c3cc4nc(OCC5(CN6CCCC6)CC5)nc(N5[C@@H]6CC[C@H]5CNC6)c4n4ccnc34)c12 [Example 17, 4-(1-((1R,5S)-3,8-diazabicyclo[3.2.1]octan-8-yl)-3-((1-(pyrrolidin-1-ylmethyl)cyclopropyl)methoxy)imidazo[1′,2′:1,6]pyrido[3,2-d]pyrimidin-6-yl)-5-ethynyl-6-fluoronaphthalen-2-ol] | 9.45 °C | 4.71 °C | 1170 nM
C#Cc1c(F)ccc2cc(O)cc(-c3cc4nc(OC[C@]56CCCN5CC(=C)C6)nc(N5[C@@H]6CC[C@H]5CNC6)c4n4ccnc34)c12 [Example 21, 4-(1-((1R,5S)-3,8-diazabicyclo[3.2.1]octan-8-yl)-3-(((R)-2-methylenetetrahydro-1H-pyrrolizin-7a(5H)-yl)methoxy)imidazo[1′,2′:1,6]pyrido[3,2-d]pyrimidin-6-yl)-5-ethynyl-6-fluoronaphthalen-2-ol] | 8.13 °C | 4.72 °C | 196 nM
Cc1cc2c(o1)c(-c1cc(O)cc3ccccc13)c(F)c1nc(OC[C@@]34CCCN3C[C@H](F)C4)nc(N3C[C@H]4CC[C@@H](C3)N4)c12 [Example 43, 4-(1-((1R,5S)-3,8-diazabicyclo[3.2.1]octan-3-yl)-5-fluoro-3-(((2R,7aS)-2-fluorotetrahydro-1H-pyrrolizin-7a(5H)-yl)methoxy)-8-methylfuro[3,2-f]quinazolin-6-yl)naphthalen-2-ol] | 9.30 °C | 4.27 °C | 953 nM
Cc1cc2c(o1)c(-c1cc(O)cc3ccccc13)c(F)c1nc(OC[C@@]34CCCN3C[C@H](F)C4)nc(NCC3(N(C)C)CCC3)c12 [Example 47, 4-(1-(((1-(dimethylamino)cyclobutyl)methyl)amino)-5-fluoro-3-(((2R,7aS)-2-fluorotetrahydro-1H-pyrrolizin-7a(5H)-yl)methoxy)-8-methylfuro[3,2-n]quinazolin-6-yl)naphthalen-2-ol] | – | – | 7980 nM
Cc1cc2c(o1)c(-c1ccc(F)c3sc(N)c(C#N)c13)c(F)c1nc(OC[C@@]34CCCN3C[C@H](F)C4)nc(N3C[C@H]4CC[C@@H](C3)N4)c12 [Example 62, 4-(1-((1R,5S)-3,8-diazabicyclo[3.2.1]octan-3-yl)-5-fluoro-3-(((2R,7aS)-2-fluorotetrahydro-1H-pyrrolizin-7a(5H)-yl)methoxy)-8-methylfuro[3,2-f]quinazolin-6-yl)-2-amino-7-fluorobenzo[b]thiophene-3-carbonitrile] | 9.01 °C | 8.57 °C | 631 nM
Cc1cc2c(o1)c(-c1ccc(F)c3sc(N)c(C#N)c13)c(F)c1nc(OC[C@@]34CCCN3C/C(=C\F)C4)nc(N3C[C@H]4CC[C@@H](C3)N4)c12 [Example 63, 4-(1-((1R,5S)-3,8-diazabicyclo[3.2.1]octan-3-yl)-5-fluoro-3-(((S,Z)-2-(fluoromethylene)tetrahydro-1H-pyrrolizin-7a(5H)-yl)methoxy)-8-methylfuro[3,2-f]quinazolin-6-yl)-2-amino-7-fluorobenzo[b]thiophene-3-carbonitrile] | 8.72 °C | 9.02 °C | 532 nM
C#Cc1c(F)ccc2cc(O)cc(-c3c(F)c4nc(OC[C@@]56CCCN5C/C(=C\F)C6)nc(N5C[C@H]6CC[C@@H](C5)N6)c4c4cc(C)oc34)c12 [Example 64, 4-(1-((1R,5S)-3,8-diazabicyclo[3.2.1]octan-3-yl)-5-fluoro-3-(((S,Z)-2-(fluoromethylene)tetrahydro-1H-pyrrolizin-7a(5H)-yl)methoxy)-8-methylfuro[3,2-n]quinazolin-6-yl)-5-ethynyl-6-fluoronaphthalen-2-ol] | 15.24 °C | 11.39 °C | 62 nM
Cn1cc2c(n1)c(-c1cc(O)cc3ccccc13)cc1nc(OC[C@@]34CCCN3C[C@H](F)C4)nc(N3C[C@H]4CC[C@@H](C3)N4)c12 [Example 68, 4-(9-((1R,5S)-3,8-diazabicyclo[3.2.1]octan-3-yl)-7-(((2R,7aS)-2-fluorotetrahydro-1H-pyrrolizin-7a(5H)-yl)methoxy)-2-methyl-2H-pyrazolo[4,3-f]quinazolin-4-yl)naphthalen-2-ol] | 5.75 °C | 1.90 °C | 9020 nM
Cn1cc2c(n1)c(-c1cc(O)cc3ccc(F)c(F)c13)cc1nc(OC[C@@]34CCCN3C[C@H](F)C4)nc(N3C[C@H]4CC[C@@H](C3)N4)c12 [Example 70, 4-(9-((1R,5S)-3,8-diazabicyclo[3.2.1]octan-3-yl)-7-(((2R,7aS)-2-fluorotetrahydro-1H-pyrrolizin-7a(5H)-yl)methoxy)-2-methyl-2H-pyrazolo[4,3-f]quinazolin-4-yl)-5,6-difluoronaphthalen-2-ol] | 6.34 °C | 3.38 °C | 735 nM

Reference: patent publication US20260209249A1, “NOVEL TRICYCLIC COMPOUND AS KRAS G12D INHIBITOR, AND USE THEREOF” (SK Biopharmaceuticals Co., priority 2022, published 2026)
